This is an account of results in US7547680B2, “Benzimidazole derivatives and medical uses thereof” (Kissei Pharmaceuticals, Co., Ltd., priority 2004, dated 2009).

The target of one test is T1, human CNT2 (Homo sapiens, UniProt O43868, I160M/P22L/S45C).
T1 construct: expressed in transfected cells; host or cells: COS-7 cells (RIKEN CELL BANK RCB0539), transient lipofection of pCI-neo plasmid
T1 sequence (O43868 1-658 P22L/S45C/I160M): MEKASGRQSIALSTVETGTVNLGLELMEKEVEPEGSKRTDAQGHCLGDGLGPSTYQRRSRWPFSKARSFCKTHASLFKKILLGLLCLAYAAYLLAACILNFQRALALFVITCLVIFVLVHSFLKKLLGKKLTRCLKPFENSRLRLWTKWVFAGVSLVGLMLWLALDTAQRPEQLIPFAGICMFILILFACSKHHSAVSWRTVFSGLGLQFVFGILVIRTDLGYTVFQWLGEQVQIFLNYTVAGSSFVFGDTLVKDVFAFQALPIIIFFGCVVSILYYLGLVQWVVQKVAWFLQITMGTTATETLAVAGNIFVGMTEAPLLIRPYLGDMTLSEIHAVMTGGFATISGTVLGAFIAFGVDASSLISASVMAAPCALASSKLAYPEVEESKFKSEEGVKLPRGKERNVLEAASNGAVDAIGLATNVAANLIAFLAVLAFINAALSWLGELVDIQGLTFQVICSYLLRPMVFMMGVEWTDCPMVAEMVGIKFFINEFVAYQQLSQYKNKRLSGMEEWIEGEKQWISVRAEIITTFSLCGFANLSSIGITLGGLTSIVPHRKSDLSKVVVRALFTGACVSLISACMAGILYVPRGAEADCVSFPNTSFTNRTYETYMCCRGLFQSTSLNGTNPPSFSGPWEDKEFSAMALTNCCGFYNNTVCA
In words: Inhibitory activity against uptake of adenosine through human CNT2. The format is cell-based. The note with it: COS-7 cells transiently expressing human CNT2; adenosine 10 μM; NBMPR 10 μM; incubation 30 minutes at 37° C. On the procedure:
Human CNT2 cDNA was obtained by PCR amplification of human kidney cDNA (CLONTECH). PCR reaction solution contained 1 μL cDNA, 2 units Platinum taq DNA polymerase high fidelity (Invitrogen), 1 μM primers (Forward: 5′-AGGAGCCAGAGGGAATCAAT-3′, Reverse: 5′-ACATCTTGGTGAGTGAGTTG-3′). Amplifications for 1 cycle at 94° C. for 2 minutes, 32 cycles at 94° C. for 30 seconds, 58° C. for 30 seconds and 68° C. for 3 minutes were performed and PCR products were ligated into PCR-II-TOPO vector (Invitrogen). PCR reaction was performed with primers containing restriction enzyme sites and the constructed plasmid as a template. PCR reaction solution contained 100 ng plasmid, 2 units Pyrobest DNA polymerase (Takara), 330 nM primers (Forward: 5′-CCGCTCGAGAGGAGCCAGAGGGAATCAAT-3′, Reverse: 5′-CGTCTAGAACATCTTGGTGAGTGAGTTG-3′). Amplifications for 1 cycle at 95° C. for 3 minutes, 15 cycles at 98° C. for 10 seconds, 60° C. for 30 seconds and 72° C. for 1 minute and 1 cycle at 72° C. for 7 minutes were performed, and the PCR products were ligated into PCI-neo mammalian expression vector (Promega). The amino acid sequence of cloned human CNT2 was substituted at P22L (codon, CCG to CTG), S45C (codon, AGC to TGC) and I160M (codon, ATA to ATG) compared to a reported amino acid sequence for human CNT2 (NCBI Accession No. AAC51930).
Expression plasmid of human CNT2 was transfected into COS-7 cells (RIKEN CELL BANK RCB0539) by lipofection method. LIPOFECTAMINE 2000 (Invitrogen) was used as a lipofection reagent. COS-7 cells were diluted in D-MEM (Invitrogen) containing 10% fetal calf serum (Sanko Junyaku) at 5×10^5/1 mL, and seeded into collagen-coated 96-well plates (IWAKI) at 100 μL/well and cultured at 37° C. for 2 hours with 5% CO2 condition. For each well, 0.6 μL of LIPOFECTAMINE 2000 (Invitrogen) was diluted in 25 μL of OPTI-MEM (Invitrogen), and incubated for 7 minutes at room temperature (hereinafter referred to as Lipo 2000-OPTI). For each well, 0.3 μg of plasmid was diluted in 25 μL of OPTI-MEM (Invitrogen), and the solution was added to the Lipo 2000-OPTI and mixed gently and incubated for 30 minutes at room temperature, and was transferred 50 μL for each well to culture medium. The cells were incubated at 37° C. with 5% CO2 condition for 2 days, and used for the uptake assays.
An Uptake buffer was prepared by addition of a mixture of non-radioisotope labeled (Sigma) and ^14C-labeled (Amersham Biosciences) adenosine at the final concentration of 10 μM into a buffer, pH 7.4, containing 140 mM sodium chloride, 2 mM potassium chloride, 1 mM calcium chloride, 1 mM magnesium chloride, 10 mM HEPES 2-[4-(2-hydroxyethyl)-1-piperazinyl]ethane sulfonic acid, 5 mM tris(hydroxymethyl)aminomethane and 5 mM glucose. For measurement of basal uptake, Basal uptake measurement buffer, which contained 140 mM choline chloride instead of sodium chloride was prepared. […]. After removing culture medium of human CNT2 transiently expressing cells, Pretreatment buffer (Basal uptake measurement buffer without adenosine and glucose) was added to wells at 200 μL/well and incubated at 37° C. for 10 minutes. After repeating the same step again, Pretreatment buffer was removed and Measurement buffers and Basal uptake measurement buffer were added at 75 μL/well and incubated at 37° C. After incubation for 30 minutes, Measurement buffers and Basal uptake measurement buffer were removed, and the cells were washed with Washing buffer (Basal uptake measurement buffer with non-radioisotope labeled adenosine at 10 μM) at 200 μL/well twice. The cells were solubilized with 0.2 mol/L sodium hydroxide at 75 μL/well, and the cell lysates were transferred into PicoPlates (Perkin Elmer). After mixing with 150 μL of MicroScint-40 (Perkin Elmer), radioactivity was measured by means of scintillation counter (Perkin Elmer). […]

Test [1] can be described thus: Effects of CNT2 inhibitors on plasma uric acid level (purine tolerance test in rats). The conditions noted are these: Male SD-IGS rats; oxonic acid 100 mg/kg s.c.; purine mix 50 mg/kg and test compound 10 mg/kg orally; blood after 1 hour; control group = 100%; Example 28 by HPLC, Examples 89 and 90 by phosphotungstic acid method. The class given is in vivo. On the procedure: Male SD-IGS rats (5 weeks old) which were fasted overnight, were subcutaneously treated with oxonic acid (Aldrich; 100 mg/kg), and after 1 hour, purine mix (Adenosine:Inosine:Guanosine=1:1:1 (Adenosine (Sigma), Inosine (WAKO), Guanosine (ICN); 50 mg/kg) and test compounds (10 mg/kg) were orally administrated simultaneously. A control group was treated with oxonic acid and the purine mix, and a group administrated only oxonic acid represented endogenous plasma uric acid value. After 1 hour, blood was collected from the abdominal aorta under ether anesthesia, and the plasma was collected with Venoject II vacuum blood collecting tube (Terumo, VP-FH052). According to the method described in Journal of Chromatography B, Vol. 744 (2000), pp. 129-138, plasma uric acid level in a compound of Example 28 was measured by using HPLC method mentioned below. Plasma uric acid levels in compounds of Examples 89 and 90 were measured by phosphotungstic acid method. Uric acid-Test Wako (WAKO) was used as a measurement reagent. As there is no difference of uric acid values between the HPLC method and the phosphotungstic acid method, uric acid value can be measured by either of both methods (for example, see the above Management guideline, pp. 18-19). The difference between plasma uric acid value in each study group and endogenous plasma uric acid value was calculated on the basis of 100% in the control group.
Theophylline (10 μg) as an internal standard substance was added to 0.1 mL of plasma collected with the above method, and then the samples were deproteinized with 1 mL of methanol. After the samples were centrifuged, the methanol layers were evaporated to dryness under a stream of nitrogen. […] Plasma uric acid concentration was determined by HPLC method according to the condition described below. […]
• Column: Inertsil ODS-2 (4.6×250 mm) • Mobile phase • A solution: acetonitrile • B solution: 10 mM phosphate buffer (pH 3.0) • A linear gradient elution method: A solution 2% to A solution 22% (25 minutes) • Column temperature: 40° C. • Flow rate: 0.5 mL/minute • Detection absorbance: 284 nm

For the next test, the target named is T2, ENT2 (Homo sapiens, UniProt Q14542).
T2 sequence (Q14542 1-456): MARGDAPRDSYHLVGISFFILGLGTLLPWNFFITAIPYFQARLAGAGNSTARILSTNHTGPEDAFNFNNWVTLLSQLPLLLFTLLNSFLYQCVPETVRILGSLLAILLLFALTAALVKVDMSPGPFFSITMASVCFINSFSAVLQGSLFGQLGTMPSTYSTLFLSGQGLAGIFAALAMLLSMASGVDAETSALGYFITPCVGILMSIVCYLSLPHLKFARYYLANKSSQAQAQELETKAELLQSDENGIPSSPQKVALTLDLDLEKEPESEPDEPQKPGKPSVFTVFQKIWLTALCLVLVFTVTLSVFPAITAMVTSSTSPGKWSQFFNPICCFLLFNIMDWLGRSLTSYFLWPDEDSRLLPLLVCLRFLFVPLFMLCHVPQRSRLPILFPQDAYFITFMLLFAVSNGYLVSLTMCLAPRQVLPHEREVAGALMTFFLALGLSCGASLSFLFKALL
The conditions noted are these: ENT2, high concentration of NBMPR; cited from earlier work.

Turning to `OCCCCOc1cc(CNc2nc3ccccc3n2[C@@H]2O[C@H](CO)[C@@H](O)[C@H]2O)ccc1-c1ccccc1` [Example 28, 2-[3-(4-Hydroxybutoxy)-4-phenylbenzylamino]-1-(β-D-ribofuranosyl)-1H-benzimidazole], on human CNT2, the midpoint of inhibition, the IC50, lay at 46 nM. The “Percentage of increment of plasma uric acid level (%)” value (from here on “Percentage of increment … (%)”) in test [1] was 15.2% (p < 0.01).
As to `CCOc1ccc(CNc2nc3ccccc3n2[C@@H]2O[C@H](CO)[C@@H](O)[C@H]2O)cc1OCCCCO` [Example 34, 2-[4-Ethoxy-3-(4-hydroxybutoxy)benzylamino]-1-(β-D-ribofuranosyl)-1H-benzimidazole], on human CNT2, 104 nM corresponded to half-maximal inhibition (IC50).
Same read-out and setting: the figure for `CCCOc1ccc(CNc2nc3ccccc3n2[C@@H]2O[C@H](CO)[C@@H](O)[C@H]2O)cc1OCCCCO` [Example 36] is 150 nM; for `CCCCOc1ccc(CNc2nc3ccccc3n2[C@@H]2O[C@H](CO)[C@@H](O)[C@H]2O)cc1OCCCCO` [Example 37] it is 213 nM; for `NCCCOc1cc(CNc2nc3ccccc3n2[C@@H]2O[C@H](CO)[C@@H](O)[C@H]2O)ccc1-c1ccccc1` [Example 51, 2-[3-(3-Aminopropoxy)-4-phenylbenzylamino]-1-(β-D-ribofuranosyl)-1H-benzimidazole] it is 9 nM.
`NC(=O)C1CCN(CCCOc2cccc(CNc3nc4ccccc4n3[C@@H]3O[C@H](CO)[C@@H](O)[C@H]3O)c2)CC1` [Example 89, 2-{3-[3-(4-Carbamoylpiperidin-1-yl)propoxy]benzylamino}-1-(β-D-ribofuranosyl)-1H-benzimidazole] returned an IC50 at human CNT2 of 55 nM. The “Percentage of increment … (%)” value in test [1] was 24.9% (p < 0.01).
For `CN(C)CCCOc1cccc(CNc2nc3ccccc3n2[C@@H]2O[C@H](CO)[C@@H](O)[C@H]2O)c1` [Example 90], the IC50 on human CNT2 was found to be 184 nM. The “Percentage of increment … (%)” value in test [1] is reported as 45.6% (p < 0.05).
On to `C[N+](C)(CCO)CCCOc1cccc(CNc2nc3ccccc3n2[C@@H]2O[C@H](CO)[C@@H](O)[C@H]2O)c1` [Example 93], for which the IC50 against human CNT2 was 172 nM.
Regarding `O=[N+]([O-])c1ccc(CSc2ncnc3c2ncn3C2OC(CO)C(O)C2O)cc1` (stereo not drawn) [NBMPR, nitrobenzylthioinosine], the IC50 at ENT2 is above 1000 nM.
